What is called mortality is the percentage killed.

Read-outs that look alike come from different tables or passages of the source.

Consider 23 molecules from patent publication US9523100B2, “Pesticidal compositions and related methods” (DOW AGROSCIENCES LLC, priority 2013, dated 2016).

For assay [1], the system named is Sweetpotato Whitefly-Crawler (WF) (Bemisia tabaci) (BEMITA). Put plainly: Insecticidal test for Sweetpotato Whitefly-Crawler (WF) in foliar spray assay on cotton plants. The format is in vivo. Particulars: 216 h, read-out: WF 200 ppm, % Control (or Mortality) rating. The text has this: Insecticidal Test for Sweetpotato Whitefly-Crawler (WF) (Bemisia tabaci) (BEMITA) in Foliar Spray Assay
The sweetpotato whitefly (Bemisia tabaci) has been reported as a serious pest of cultivated crops world-wide. It has an extremely wide host range attacking more than 500 species of plants from 63 plant families. Weeds often serve as alternate hosts of crop pests. Direct feeding damage is caused by the piercing and sucking sap from the foliage of plants. This feeding causes weakening and early wilting of the plant and reduces the plant growth rate and yield Indirect damage results by the accumulation of honeydew produced by the whiteflies. Honeydew serves as a substrate for the growth of black sooty mold on leaves and fruit reducing photosynthesis and lessens the market value of the plant or yield. […] The sweetpotato whitefly is considered the most common and important whitefly vector of plant viruses worldwide.
Cotton plants (Gossypium hirsutum) grown in 3-inch pots, with 1 small (4-5 cm) true leaves, were used as test substrate. The plants were infested with 200-400 whitefly eggs 4-5 days prior to chemical application. Four pots with individual plants were used for each treatment. Test compounds (2 mg) were dissolved in 1 mL of acetone solvent, forming stock solutions of 2000 ppm test compound. The stock solutions were diluted 10× with 0.025% Tween 20 in water (diluents) to obtain the solution at 200 ppm test compound. A hand-held aspirator-type sprayer was used for spraying a solution to both sides of cotton leaves until runoff. Reference plants (solvent check) were sprayed with the diluent only containing 10% by volume of acetone solvent. Treated plants were held in a holding room for 9 days at approximately 25° C. and ambient relative humidity (RH) prior to grading. Evaluation was conducted by counting the number of live 3-4 nymph stage per plant under a microscope. Percent control was measured by using Abbott's correction formula (W. S. Abbott, “A Method of Computing the Effectiveness of an Insecticide” J. Econ. Entomol. 18 (1925), pp. 265-267) as follows.
Biological Data for Green Peach Aphid (GPA) (MYZUPE) and Sweetpotato Whitefly-Crawler (WF) (BEMITA)” (see table section). Corrected % Control=100*(X−Y)/X
X=No. of live nymphs on solvent check plants and
Y=No. of live nymphs on treated plants
(§1) The mortality efficiency of the pesticidal compounds against GPA and WF insects was determined after treatment.

Assay [2] concerns Green Peach Aphid (GPA) (Myzus persicae) (MYZUPE). The assay can be described thus: Bioassay for Green Peach Aphid (GPA), foliar spray on cabbage seedlings. It is filed as in vivo. The following applies: 72 h, read-out: GPA 200 ppm, % Control (or Mortality) rating.
Text: Bioassay for Green Peach Aphid (GPA) (Myzus persicae) (MYZUPE)
The green peach aphid (Myzus persicae) is the most significant aphid pest of peach trees, causing decreased growth, shriveling of the leaves, and the death of various tissues. It is also hazardous because it acts as a vector for the transport of plant viruses, such as potato virus Y and potato leafroll virus to members of the nightshade/potato family Solanaceae, and various mosaic viruses to many other food crops. GPA attacks such plants as broccoli, burdock, cabbage, carrot, cauliflower, daikon, eggplant, green beans, lettuce, macadamia, papaya, peppers, sweet potatoes, tomatoes, watercress, and zucchini, among other plants GPA also attacks many ornamental crops such as carnation, chrysanthemum, flowering white cabbage, poinsettia, and roses. GPA has developed resistance to many pesticides.
Cabbage seedlings grown in 3-inch pots, with 2-3 small (3-5 cm) true leaves, were used as test substrate. The seedlings were infested with 20-50 GPA (wingless adult and nymph stages) one day prior to chemical application. Four pots with individual seedlings were used for each treatment. Test compounds (2 mg) were dissolved in 2 mL of acetone/methanol (1:1) solvent, forming stock solutions of 1000 ppm test compound. The stock solutions were diluted 5× with 0.025% Tween 20 in water to obtain the solution at 200 ppm test compound. A hand-held aspirator-type sprayer was used for spraying a solution to both sides of […] leaves until runoff. Reference plants (solvent check) were sprayed with the diluent only containing 20% by volume of acetone/methanol (1:1) solvent. Treated plants were held in a holding room for three days at approximately 25° C. and ambient relative humidity (RH) prior to grading. Evaluation was conducted by counting the number of live aphids per plant under a microscope. Percent control was measured by using Abbott's correction formula (W. S. Abbott, “A Method of Computing the Effectiveness of an Insecticide” J. Econ. Entomol. 18 (1925), pp. 265-267) as follows. Corrected % Control=100*(X−Y)/X
X=No. of live aphids on solvent check plants and
Y=No. of live aphids on treated plants
Biological Data for Green Peach Aphid (GPA) (MYZUPE) and Sweetpotato Whitefly-Crawler (WF) (BEMITA)” (see table section).
as §1

[3] abbreviates: 200 ppm foliar spray on cotton plants, graded after 9 days, Abbott corrected % control.
Setting [4] is: 200 ppm foliar spray on cabbage seedlings, graded after three days, Abbott corrected % control.

With `CON=C(C)CCC(=O)N(C)c1cn(-c2cccnc2)nc1Cl` (mixture of isomers) [Compound F60, (E/Z)-N-(3-Chloro-1-(pyridin-3-yl)-1H-pyrazol-4-yl)-4-(methoxyimino)-N-methylpentanamide], the mortality at 200 ppm in assay [1] (setting [3]) and in assay [2] (setting [4]) was 80 to 100% throughout.
With `CCN(C(=O)CC/C(C)=N/OCC1CC1(F)F)c1cn(-c2cccnc2)nc1Cl` (mixture of isomers) [Compound F72, (E/Z)-N-(3-chloro-1-(pyridin-3-yl)-1H-pyrazol-4-yl)-4-(((2,2-difluorocyclopropyl)methoxy)imino)-N-ethylpentanamide], the mortality at 200 ppm in assay [1] (setting [3]) and in assay [2] (setting [4]) was 80 to 100% throughout.
Take `CCN(C(=O)CCC(C)=NOC)c1cn(-c2cccnc2)nc1Cl` (mixture of isomers) [Compound F92, (E/Z)-N-(3-chloro-1-(pyridin-3-yl)-1H-pyrazol-4-yl)-N-ethyl-4-(methoxyimino) pentanamide]: the mortality at 200 ppm in assay [1] (setting [3]) and in assay [2] (setting [4]) was 80 to 100% throughout.
On to `CC(CCC(=O)N(C)c1cn(-c2cccnc2)nc1Cl)=NOC(C)C` (mixture of isomers) [Compound F130, (E/Z)-N-(3-Chloro-1-(pyridin-3-yl)-1H-pyrazol-4-yl)-4-(isopropoxyimino)-N-methylpentanamide], for which the mortality at 200 ppm in assay [1] (setting [3]) and in assay [2] (setting [4]) was 80 to 100% in each case.
As to `CCN(C(=O)CCC=NOCCC1CC1(F)F)c1cn(-c2cccnc2)nc1Cl` (mixture of isomers) [FA61, (E/Z)-N-(3-Chloro-1-(pyridin-3-yl)-1H-pyrazol-4-yl)-4-((2-(2,2-difluorocyclopropyl)ethoxy)imino)-N-ethylbutanamide], the mortality at 200 ppm in assay [1] (setting [3]) and in assay [2] (setting [4]) was 80 to 100% in each case.
Turning to `C=CCC(C)C(=O)N(CC)c1cn(-c2cccnc2)nc1Cl` (centres unmarked) [CA1, N-[3-Chloro-1-(3-pyridyl)pyrazol-4-yl]-N-ethyl-2-methyl-pent-4-enamide], the mortality at 200 ppm in assay [2] (setting [4]) lay in the range of 80 to 100%.
With `CCN(C(=O)CCl)c1cn(-c2cccnc2)nc1Cl` [CA2, 2-Chloro-N-[3-chloro-1-(3-pyridyl)pyrazol-4-yl]-N-ethyl-acetamide], the mortality at 200 ppm in assay [1] (setting [3]) lay in the range of 80 to 100%; in assay [2] (setting [4]) it was 0 to 80%.
On to `CCN(C(=O)CCC(=O)O)c1cn(-c2cccnc2)nc1Cl` [Compound C1, 4-((3-chloro-1-(pyridin-3-yl)-1H-pyrazol-4-yl)(ethyl)amino)-4-oxobutanoic acid], for which the mortality at 200 ppm was 0 to 80% in assay [1] (setting [3]) and under 0% in assay [2] (setting [4]).
The matching figures for `CCN(C(=O)CCN)c1cn(-c2cccnc2)nc1Cl` [Compound C2, 3-amino-N-(3-chloro-1-(pyridin-3-yl)-1H-pyrazol-4-yl)-N-ethylpropanamide]: 80 to 100% and 0 to 80%.
Turning to `CC(C)(C)[Si](C)(C)N1CC(CC(=O)O)C1=O` (centres unmarked) [Compound C3, 2-(1-(tert-butyldimethylsilyl)-2-oxoacetidin-3-yl)acetic acid], the mortality at 200 ppm in assay [2] (foliar) is 0 to 80%.
`CC(C)(C)[Si](C)(C)N1CC(CCC(=O)O)C1=O` (centres unmarked) [Compound C4, 3-(1-(tert-Butyldimethylsilyl)-2-oxoazetidin-3-yl)propanoic acid]: the mortality at 200 ppm in assay [2] (foliar) lay in the range of 0 to 80%.
Regarding `CC(C)(C)[Si](C)(C)N1CC(CCCC(=O)O)C1=O` (centres unmarked) [Compound C5, 4-(1-(tert-Butyldimethylsilyl)-2-oxoazetidin-3-yl)butanoic acid], the mortality at 200 ppm in assay [1] (foliar) was under 0%; in assay [2] (foliar), 0 to 80%.
Regarding `CCN(C(=O)C(C)Cl)c1cn(-c2cccnc2)nc1Cl` (centres unmarked) [Compound C10, 2-Chloro-N-(3-chloro-1-(pyridin-3-yl)-1H-pyrazol-4-yl)-N-ethylpropanamide], the mortality at 200 ppm in assay [1] (setting [3]) and in assay [2] (setting [4]) was 80 to 100% throughout.
On to `CCN(C(=O)CCNC)c1cn(-c2cccnc2)nc1Cl` [Compound C11, N-(3-chloro-1-(pyridin-3-yl)-1H-pyrazol-4-yl)-N-ethyl-3-(methylamino)propanamide], for which the mortality at 200 ppm in assay [1] (setting [3]) fell in the range of 80 to 100%; in assay [2] (setting [4]), 0 to 80%.
`CCN(C(=O)C(C)OC(C)=O)c1cn(-c2cccnc2)nc1Cl` (centres unmarked) [Compound C12, 1-((3-chloro-1-(pyridin-3-yl)-1H-pyrazol-4-yl)(ethyl)amino)-1-oxopropan-2-yl acetate]: the mortality at 200 ppm in assay [1] (setting [3]) and in assay [2] (setting [4]) was 80 to 100% throughout.
Consider `CCN(C(=O)C(C)O)c1cn(-c2cccnc2)nc1Cl` (centres unmarked) [Compound C13, N-(3-chloro-1-(pyridin-3-yl)-1H-pyrazol-4-yl)-N-ethyl-2-hydroxypropanamide], for which the mortality at 200 ppm in assay [1] (setting [3]) and in assay [2] (setting [4]) was 80 to 100% each time.
With `CCN(C(=O)CCNCC(F)F)c1cn(-c2cccnc2)nc1Cl` [Compound C14, N-(3-chloro-1-(pyridin-3-yl)-1H-pyrazol-4-yl)-3-((2,2-difluoroethyl)amino)-N-ethylpropanamide], the mortality at 200 ppm in assay [1] (setting [3]) and in assay [2] (setting [4]) was 80 to 100% throughout.
As to `CCN(C(=O)CNC(=O)C1(C)CC1(F)F)c1cn(-c2cccnc2)nc1Cl` (centres unmarked) [Compound F1, N-(2-((3-Chloro-1-(pyridin-3-yl)-1H-pyrazol-4-yl)(ethyl)amino)-2-oxoethyl)-2,2-difluoro-1-methylcyclopropanecarboxamide], the mortality at 200 ppm in assay [1] (setting [3]) and in assay [2] (setting [4]) was 80 to 100% in each case.
`CCN(C(=O)CC/C(C)=N/OCC1CC(F)(F)C1)c1cn(-c2cccnc2)nc1Cl` [FA21, (E/Z)-N-(3-Chloro-1-(pyridin-3-yl)-1H-pyrazol-4-yl)-4-(((3,3-difluorocyclobutyl)methoxy)imino)-N-ethylpentanamide]: the mortality at 200 ppm in assay [2] (setting [4]) is 0 to 80%.
Take `CCN(C(=O)CC/C(C)=N/OCc1noc(C(C)(C)C)n1)c1cn(-c2cccnc2)nc1Cl` [FA23, (E/Z)-4-(((5-(tert-Butyl)-1,2,4-oxadiazol-3-yl)methoxy)imino)-N-(3-chloro-1-(pyridin-3-yl)-1H-pyrazol-4-yl)-N-ethylpentanamide]: the mortality at 200 ppm in assay [2] (setting [4]) lay in the range of 0 to 80%.
The same measure, in the same setting: to `CCN(C(=O)CC/C(C)=N/OCc1ncc(C(F)(F)F)cc1Cl)c1cn(-c2cccnc2)nc1Cl` [FA24, (E/Z)-N-(3-Chloro-1-(pyridin-3-yl)-1H-pyrazol-4-yl)-4-(((3-chloro-5-(trifluoromethyl)pyridin-2-yl)methoxy)imino)-N-ethylpentanamide] belongs 0 to 80%; to `CCN(C(=O)CC/C(C)=N/OCc1c(C)noc1C)c1cn(-c2cccnc2)nc1Cl` [FA25, (E/Z)-N-(3-Chloro-1-(pyridin-3-yl)-1H-pyrazol-4-yl)-4-(((3,5-dimethylisoxazol-4-yl)methoxy)imino)-N-ethylpentanamide], 0 to 80%; to `CCN(C(=O)C(C)C/C(C)=N/OCCC1CC1(F)F)c1cn(-c2cccnc2)nc1Cl` (centres unmarked) [FA58, (E)-N-(3-Chloro-1-(pyridin-3-yl)-1H-pyrazol-4-yl)-4-((2-(2,2-difluorocyclopropyl)ethoxy)imino)-N-ethyl-2-methylpentanamide], 80 to 100%.
